Literature values in patent publication US20230098686A1, “NERVE SPECIFIC FLUOROPHORE FORMULATIONS FOR DIRECT AND SYSTEMIC ADMINISTRATION” (OREGON HEALTH & SCIENCE UNIVERSITY, priority 2020, published 2023).

Test system: nerve tissue
Conditions: previous studies

**Q.** Which nerve specificity does the source give for CC/N=c1/cc2oc3cc(NCC)c(C)cc3nc-2cc1C [Oxazine 4] here?
**A.** high nerve-specificity
